Results taken from US20260184675A1, “CHIRAL ISOMERIC SULFITE COMPOUND AND APPLICATION THEREOF” (Chengdu Hanova BioSciences Co., Ltd, priority 2024, published 2026).

Key:
[1] = test system: pest eggs of Tetranychus cinnabarinus; assay: Effect on hatching of pest eggs of Tetranychus cinnabarinus, leaf disc method; assay type: in vivo; conditions: for Hatching rate (%): 7 days after insecticide delivery; for inhibitory effect on the hatching of pest eggs of Tetranychus cinnabarinus (in words): 1 ppm
Protocol: • (1) Preparation of leaf discs containing eggs: 20 female adult mites of Tetranychus cinnabarinus were transferred onto leaf discs of Vicia faba with a diameter of 2.0 cm (with wetted filter paper at the bottom), then covered it with a lidded culture dish and cultivated under moisturizing conditions, the adult mites were removed within 36 hours and microscopic examination and counting were performed on leaf discs containing eggs. • (2) Investigation of egg population base: Before pesticide soaking, a microscopic examination was conducted on the egg basic number of each leaf disc, with 2 replicates set for each treatment. • (3) Pesticide soaking treatment: The leaf butterflies loaded with mite eggs were soaked in clear water and sulfite compounds for 10 seconds, respectively, then taken out and cultivated under moisturizing conditions. Each treatment should be repeated for no less than 3 times. • (4) Cultivation and observation: The […] were cultivated under normal conditions. Five days after insecticide delivery, the hatching status of mite eggs was investigated. • Note: The temperature and humidity conditions of the constant temperature and humidity incubator after the treatment should be controlled so as to avoid excessive temperature differences, which may cause generation and dripping of condensate water in the culture dish, resulting in abnormal death of eggs due to soaking in water; it is also necessary to ensure sufficient strong ambient light, without directing irradiating the leaves. • (5) Survey of Results: The experimental materials of each treatment group were regularly hydrated and moisturized, and the hatching of eggs was observed. On the 7th day after insecticide delivery, the number of hatched eggs for each treatment was recorded, and the survey of results was recorded in the original notebook. According to the experimental requirements and characteristics of agents, the survey time can be shortened or extended. • 1) Surveying and recording the number of hatched eggs for each treatment. • 2) Photographing and recording whether there was any pesticide damage to the leaf discs of Vicia faba. • 3) Recording the developmental status of experimental mite eggs, behavior status of nymph mites, including abnormal phenomena such as delayed or stopped development of mite eggs, difficulty in breaking hull for nymph mites, or painful struggles after hatching, etc. • (6) Calculation method: Based on the survey data, the prevention and control effect of each treatment was calculated according to the following formula, and the calculation results were kept to two decimal places. [formula] [formula] [table]

[2] = test system: eggs of Spodoptera litura; assay: Effect on hatching of eggs of Spodoptera litura, egg piece soaking; assay type: in vivo; conditions: 500 ppm; for Hatching rate (%), Replicate 1 / Hatching rate (%), Replicate 2 / Hatching rate (%), Replicate 3 / Number of unhatched larvae 4 days after insecticide delivery, Replicate 1 / Number of unhatched larvae 4 days after insecticide delivery, Replicate 2 / Number of unhatched larvae 4 days after insecticide delivery, Replicate 3: Spodoptera litura eggs; for Hatching rate (%), Replicate 1 / Hatching rate (%), Replicate 2 / Hatching rate (%), Replicate 3: 4 days after delivery; for Number of unhatched larvae 4 days after insecticide delivery, Replicate 1 / Number of unhatched larvae 4 days after insecticide delivery, Replicate 2 / Number of unhatched larvae 4 days after insecticide delivery, Replicate 3: soaked 10 minutes
Protocol: • (1) Preparation of paper containing eggs: the egg mass was cut into small pieces, each containing about 60 eggs, soaked in a preformulated test agent for 10 minutes together with paper for egg raising (concentration of each compound of 500 ppm). After taken out, absorbent paper was used to absorb the excess solution adhered to the paper for egg raising and egg pieces. (2) Cultivation: Each egg piece was separately placed in a glass test tube (5.0 cm in height, 2.5 cm in diameter, the same below), which was sealed with plastic paper punctured with fine holes using insect needles and cultivated in an artificial climate chamber at a temperature of (24±1° C.), a relative humidity of (80±10) %, and a photoperiod of L:D=12:12. When the eggs developed until they were about to hatch, castor leaves with a diameter of about 3 cm were added for feeding the hatching larvae; • (3) Observation: the number of hatched and unhatched eggs per egg piece was checked and recorded, and the hatching rate of eggs was calculated according to the formula. Each treatment was repeated for 3 times. • (4) Survey of results: The experimental materials of each treatment group were regularly hydrated and moisturized, and the hatching of eggs was observed. On the 4th day after insecticide delivery, the number of hatched eggs for each treatment was recorded, and the survey of results was recorded in the original notebook. According to the experimental requirements and characteristics of agents, the survey time can be shortened or extended. • 1) Surveying and recording the number of hatched eggs for each treatment. • 2) Recording the developmental status of experimental eggs of Spodoptera litura, behavior status of nymphs, including abnormal phenomena such as delayed or stopped development of eggs of Spodoptera litura, etc. • (5) Calculation method: Based on the survey data, the prevention and control effect of each treatment was calculated according to the following formula, and the calculation results were kept to two decimal places. [formula] [formula]

| SMILES | Hatching rate (%) ([1]; 0.25 mg/L, Replicate 1) | Hatching rate (%) ([1]; 0.25 mg/L, Replicate 2) | Number of hatched larvae 7 days after insecticide delivery ([1]; 0.25 mg/L, Replicate 1) | Number of hatched larvae 7 days after insecticide delivery ([1]; 0.25 mg/L, Replicate 2) | Hatching rate (%) ([1]; 0.5 mg/L, Replicate 1) | Hatching rate (%) ([1]; 0.5 mg/L, Replicate 2) | Number of hatched larvae 7 days after insecticide delivery ([1]; 0.5 mg/L, Replicate 1) | Number of hatched larvae 7 days after insecticide delivery ([1]; 0.5 mg/L, Replicate 2) | Hatching rate (%) ([1]; 1 mg/L, Replicate 1) | Hatching rate (%) ([1]; 1 mg/L, Replicate 2) | Number of hatched larvae 7 days after insecticide delivery ([1]; 1 mg/L, Replicate 1) | Number of hatched larvae 7 days after insecticide delivery ([1]; 1 mg/L, Replicate 2) | inhibitory effect on the hatching of pest eggs of Tetranychus cinnabarinus (in words) [1] | inhibitory activity on the hatching of eggs of Spodoptera litura (in words) [2] | other results |
| --- | --- | --- | --- | --- | --- | --- | --- | --- | --- | --- | --- | --- | --- | --- | --- |
| C[C@H](COS(=O)OCCF)Oc1ccc(Cl)cc1Cl (stereo partly drawn) [1-(R,R)] | 45.45% | 45.10% | 36 | 28 | 4.26% | 5.56% | 45 | 68 | 0.00% | 0.00% | 56 | 62 | excellent inhibitory effects | good inhibitory activities | Hatching rate (%), Replicate 1 ([2]; listed as 1-(R, R)): 22.39%; Hatching rate (%), Replicate 2 ([2]; listed as 1-(R, R)): 21.05%; Hatching rate (%), Replicate 3 ([2]; listed as 1-(R, R)): 23.73%; Number of unhatched larvae 4 days after insecticide delivery, Replicate 1 ([2]; listed as 1-(R, R)): 47; Number of unhatched larvae 4 days after insecticide delivery, Replicate 2 ([2]; listed as 1-(R, R)): 45; Number of unhatched larvae 4 days after insecticide delivery, Replicate 3 ([2]; listed as 1-(R, R)): 45 |
| C[C@H](COS(=O)OCCF)Oc1ccc(Cl)cc1Cl (stereo partly drawn) [1-(R,S)] | 74.51% | 76.47% | 13 | 14 | 43.66% | 48.98% | 40 | 25 | 4.69% | 6.67% | 61 | 42 |  |  | Hatching rate (%), Replicate 1 ([2]; listed as 1-(R, S)): 64.18%; Hatching rate (%), Replicate 2 ([2]; listed as 1-(R, S)): 61.40%; Hatching rate (%), Replicate 3 ([2]; listed as 1-(R, S)): 60.34%; Number of unhatched larvae 4 days after insecticide delivery, Replicate 1 ([2]; listed as 1-(R, S)): 25; Number of unhatched larvae 4 days after insecticide delivery, Replicate 2 ([2]; listed as 1-(R, S)): 22; Number of unhatched larvae 4 days after insecticide delivery, Replicate 3 ([2]; listed as 1-(R, S)): 23 |
| C[C@@H](COS(=O)OCCF)Oc1ccc(Cl)cc1Cl (stereo partly drawn) [1-(S,R)] | 59.57% | 76.09% | 19 | 11 | 35.29% | 31.25% | 33 | 44 | 2.56% | 0.00% | 76 | 64 |  |  | Hatching rate (%), Replicate 1 ([2]; listed as 1-(S, R)): 62.30%; Hatching rate (%), Replicate 2 ([2]; listed as 1-(S, R)): 63.08%; Hatching rate (%), Replicate 3 ([2]; listed as 1-(S, R)): 60.34%; Number of unhatched larvae 4 days after insecticide delivery, Replicate 1 ([2]; listed as 1-(S, R)): 23; Number of unhatched larvae 4 days after insecticide delivery, Replicate 2 ([2]; listed as 1-(S, R)): 24; Number of unhatched larvae 4 days after insecticide delivery, Replicate 3 ([2]; listed as 1-(S, R)): 23 |
| C[C@@H](COS(=O)OCCF)Oc1ccc(Cl)cc1Cl (stereo partly drawn) [1-(S,S)] | 50.88% | 38.98% | 28 | 36 | 0.00% | 9.72% | 70 | 65 | 0.00% | 0.00% | 75 | 68 | excellent inhibitory effects | good inhibitory activities | Hatching rate (%), Replicate 1 ([2]; listed as 1-(S, S)): 23.73%; Hatching rate (%), Replicate 2 ([2]; listed as 1-(S, S)): 26.15%; Hatching rate (%), Replicate 3 ([2]; listed as 1-(S, S)): 20.69%; Number of unhatched larvae 4 days after insecticide delivery, Replicate 1 ([2]; listed as 1-(S, S)): 45; Number of unhatched larvae 4 days after insecticide delivery, Replicate 2 ([2]; listed as 1-(S, S)): 48; Number of unhatched larvae 4 days after insecticide delivery, Replicate 3 ([2]; listed as 1-(S, S)): 46 |
